{
  "source": "patent US20170326105A1",
  "about": "“MELATONIN-BASED NASAL COMPOSITIONS AND USES THEREOF” (The Lester Smith Medical Research Institute, LLC, priority 2016, published 2017)",
  "origin": "cited, not measured here",
  "data": [
    {"smiles": "COc1ccc2[nH]cc(CCNC(C)=O)c2c1", "note": "[melatonin, N-acetyl-5-methoxy tryptamine]", "values": [
      {"measurement": "time for plasma levels to return to baseline", "setting": "after discontinuation of chronic dosing of less than 10 mg/day", "value": "≤ 24", "unit": "h"},
      {"measurement": "estimated peak blood levels above physiological levels", "setting": "doses of melatonin 5 mg", "value": 25, "unit": "times"},
      {"measurement": "time after administration for blood plasma concentration to reach its peak", "setting": "oral administration", "value": "over an hour"}
    ]}
  ]
}
